Measured values: patent publication US11564394B2, “Distorted gold (I)-phosphine complexes and methods for use as antifungal agents” (University of Kentucky Research Foundation, priority 2019, dated 2023)
Like-named read-outs stand apart in the source and are kept apart here.

Assays:
Assay in all cases: MIC determination (broth microdilution)
Assay type in all cases: cell-based, Candida auris
Settings in all cases: Candidozyma auris
[1] = tested on: C. auris AR Bank # 0384 (strain K)
[2] = tested on: C. auris AR Bank # 0390 (strain L)
[3] = tested on: C. auris AR Bank # 0381 (strain I)
[4] = tested on: C. auris AR Bank # 0382 (strain II)
[5] = tested on: C. auris AR Bank # 0383 (strain III)
[6] = tested on: C. auris AR Bank # 0385 (strain IV)
[7] = tested on: C. auris AR Bank # 0386 (strain V)
[8] = tested on: C. auris AR Bank # 0387 (strain VI)
[9] = tested on: C. auris AR Bank # 0388 (strain VII)
[10] = tested on: C. auris AR Bank # 0389 (strain VIII)
[11] = strain K = C. auris AR Bank # 0384, MIC-2, read-out: MIC (MIC-2 for azoles)
[12] = strain K = C. auris AR Bank # 0384, MIC-2, read-out: MIC (MIC-2 for azoles, in parentheses)
[13] = strain L = C. auris AR Bank # 0390, MIC-2, read-out: MIC (MIC-2 for azoles)
[14] = strain L = C. auris AR Bank # 0390, MIC-2, read-out: MIC (MIC-2 for azoles, in parentheses)
[15] = strain I = C. auris AR Bank # 0381, MIC-2, optical density at 600 nm, read-out: MIC (MIC-2 for azoles)
[16] = strain I = C. auris AR Bank # 0381, MIC-2, optical density at 600 nm, read-out: MIC (MIC-2 for azoles, in parentheses)
[17] = strain II = C. auris AR Bank # 0382, MIC-2, read-out: MIC (MIC-2 for azoles)
[18] = strain II = C. auris AR Bank # 0382, MIC-2, read-out: MIC (MIC-2 for azoles, in parentheses)
[19] = strain IV = C. auris AR Bank # 0385, MIC-2, read-out: MIC (MIC-2 for azoles)
[20] = strain IV = C. auris AR Bank # 0385, MIC-2, read-out: MIC (MIC-2 for azoles, in parentheses)
[21] = strain V = C. auris AR Bank # 0386, MIC-2, read-out: MIC (MIC-2 for azoles)
[22] = strain V = C. auris AR Bank # 0386, MIC-2, read-out: MIC (MIC-2 for azoles, in parentheses)
[23] = strain VI = C. auris AR Bank # 0387, MIC-2, read-out: MIC (MIC-2 for azoles)
[24] = strain VI = C. auris AR Bank # 0387, MIC-2, read-out: MIC (MIC-2 for azoles, in parentheses)
[25] = strain VII = C. auris AR Bank # 0388, MIC-2, read-out: MIC (MIC-2 for azoles)
[26] = strain VII = C. auris AR Bank # 0388, MIC-2, read-out: MIC (MIC-2 for azoles, in parentheses)
[27] = strain VIII = C. auris AR Bank # 0389, MIC-2, read-out: MIC (MIC-2 for azoles)
[28] = strain VIII = C. auris AR Bank # 0389, MIC-2, read-out: MIC (MIC-2 for azoles, in parentheses)

Row | MIC [1, 11] [µg/mL] | MIC [1, 12] [µM] | MIC [2, 13] [µg/mL] | MIC [2, 14] [µM] | MIC [3, 15] [µg/mL] | MIC [3, 16] [µM] | MIC [4, 17] [µg/mL] | MIC [4, 18] [µM] | MIC [6, 19] [µg/mL] | MIC [6, 20] [µM] | MIC [7, 21] [µg/mL] | MIC [7, 22] [µM] | MIC [8, 23] [µg/mL] | MIC [8, 24] [µM] | MIC [9, 25] [µg/mL] | MIC [9, 26] [µM] | MIC [10, 27] [µg/mL] | MIC [10, 28] [µM] | Structure (SMILES) | also measured
1 | – | – | – | – | – | – | – | – | – | – | – | – | – | – | – | – | – | – | CC[C@H](C)C[C@H](C)CCCCCCCCC(=O)N[C@H]1C[C@@H](O)[C@@H](NCCN)NC(=O)[C@@H]2[C@@H](O)CCN2C(=O)[C@H]([C@H](O)CCN)NC(=O)[C@H]([C@H](O)[C@@H](O)c2ccc(O)cc2)NC(=O)[C@@H]2C[C@@H](O)CN2C(=O)[C@H]([C@@H](C)O)NC1=O [CAS, caspofungin] | MIC [1]: 1.95 µg/mL; MIC ([1]; read-out: MIC (in parentheses)): 1.8 µM; MIC [2]: 7.8 µg/mL; MIC ([2]; read-out: MIC (in parentheses)): 7.1 µM; MIC [3]: < 0.98 µg/mL; MIC ([3]; read-out: MIC (in parentheses)): < 0.9 µM; MIC [4]: < 0.98 µg/mL; MIC ([4]; read-out: MIC (in parentheses)): < 0.9 µM; MIC [5]: 1.95 µg/mL; MIC ([5]; read-out: MIC (in parentheses)): 1.8 µM; MIC [6]: < 0.98 µg/mL; MIC ([6]; read-out: MIC (in parentheses)): < 0.9 µM; MIC [7]: 7.8 µg/mL; MIC ([7]; read-out: MIC (in parentheses)): 7.1 µM; MIC [8]: 31.3 µg/mL; MIC ([8]; read-out: MIC (in parentheses)): 28.6 µM; MIC [9]: 31.3 µg/mL; MIC ([9]; read-out: MIC (in parentheses)): 28.6 µM; MIC [10]: 7.8 µg/mL; MIC ([10]; read-out: MIC (in parentheses)): 7.1 µM
2 | 31.3 | 102 | > 62.5 | > 204 | 0.49 | 1.6 | 0.49 | 1.6 | > 62.5 | > 204 | > 62.5 | > 204 | 0.98 | 3.2 | > 62.5 | > 204 | > 62.5 | > 204 | OC(Cn1cncn1)(Cn1cncn1)c1ccc(F)cc1F [FLC, fluconazole] | –
3 | 0.24 | 0.7 | 0.49 | 1.4 | 0.06 | 0.2 | 0.06 | 0.2 | 3.9 | 11.2 | 3.9 | 11.2 | 0.06 | 0.2 | 0.49 | 1.4 | 0.98 | 2.8 | C[C@@H](c1ncncc1F)[C@](O)(Cn1cncn1)c1ccc(F)cc1F [VRC, voriconazole] | MIC ([5]; strain III = C. auris AR Bank # 0383, MIC-2, read-out: MIC (MIC-2 for azoles)): 1.95 µg/mL; MIC ([5]; strain III = C. auris AR Bank # 0383, MIC-2, read-out: MIC (MIC-2 for azoles, in parentheses)): 5.6 µM
